For one data set, the system named is Phaedon cochleariae. Briefly: Phaedon cochleariae spray test. To be noted: for efficacy: 100 g/ha, after 7 days; for pest or weed control at 100 g/ha: Phaedon cochleariae, 168 h, read-out: efficacy.
In another data set the test system is Spodoptera frugiperda. Briefly: Spodoptera frugiperda spray test. The class given is in vivo. The conditions noted are these: 100 g/ha, after 7 days; for pest or weed control at 100 g/ha: Spodoptera frugiperda, 168 h, read-out: efficacy.
In another data set the test system is Boophilus microplus. The data set is described as follows: Boophilus microplus injection test. Type of data set: in vivo. The conditions noted are these: 20 μg/animal; assessed after 7 days. How it is done:
(§1) • Solvent: dimethyl sulfoxide
1 μl of the active ingredient solution is injected into the abdomen of 5 engorged adult female cattle ticks (Boophilus microplus). The animals are transferred into dishes and kept in a climate-controlled room.

Data set [1] deals with Tetranychus urticae. Briefly: Tetranychus urticae spray test, OP-resistant (bean leaf discs). The class given is in vivo. The conditions noted are these: 100 g/ha; after 6 days. How it is done: (§2) After 6 days, the efficacy in % is determined.
Data set [2] has as its system Ctenocephalides felis. Briefly: Ctenocephalides felis in vitro contact test with adult cat fleas. The class given is in vivo. The conditions noted are these: application rate 5 μg/cm^2 (=500 g/ha); after 48 h; dead or moribund fleas. In a few lines:
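After 48 h at room temperature and ambient humidity, adult cat fleas (5–10 per tube) were scored, with motionless or uncoordinated fleas counted dead or moribund. Tubes had been coated with acetone solutions of compound, the 900 ppm solution giving 5 μg/cm². Efficacy: 100% means all fleas dead or moribund, 0% none harmed.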

For the next data set, the system named is Musca domestica. Briefly: Musca domestica test. The class given is in vivo. The conditions noted are these: 100 ppm; adult houseflies; after 2 days. As for the experimental part:
as §1
(§3) To produce a suitable active ingredient formulation, 10 mg of active ingredient are mixed with 0.5 ml of dimethyl sulfoxide, and the concentrate is diluted with water to the desired concentration.
Vessels containing a sponge treated with sugar solution and the active ingredient formulation of the desired concentration are populated with 10 adult houseflies (Musca domestica).

For the next data set, the system named is Amblyomma hebraeum. The data set is described as follows: Amblyomma hebraeum test (tick nymphs, immersion). The class given is in vivo. To be noted: 100 ppm; after 42 days. As for the experimental part: as §1, §3
Tick nymphs (Amblyomma hebraeum) are placed into perforated plastic beakers and immersed in the desired concentration for one minute. The ticks are transferred on filter paper into a Petri dish and stored in a climate-controlled cabinet.

The test system of a further data set is Rhipicephalus sanguineus. The data set is described as follows: Rhipicephalus sanguineus in vitro contact test with adult brown dog ticks. The class given is in vivo. To be noted: after 48 h. In outline: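 Efficacy, as % of ticks dead or moribund, was judged 48 h after placing 5-10 adult brown dog ticks in acetone-coated tubes (5 μg/cm^2 from 900 ppm) kept dark at room temperature. Ticks unable to climb away from a 45-50° C hotplate within 5 min counted as affected.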

In data set [3] the test system is Ctenocephalides felis. Briefly: Ctenocephalides felis oral test. Type of data set: in vivo. The conditions noted are these: 100 ppm in citrated cattle blood; after 2 days.
Data set [4] deals with cattle ticks (Boophilus microplus) Parkhurst strain, SP-resistant. The data set is described as follows: Boophilus microplus dip test. The class given is in vivo. To be noted: 100 ppm; assessed after 7 days. In a few lines:
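Engorged adult female ticks (8-10 per tube) fully immersed in compound from DMSO stock diluted with water to test concentration, then held in a climate-controlled room. Efficacy scored after 7 days from fertile egg laying, with eggs kept until hatching at about 42 days. 100% means no fertile eggs laid.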

In another data set the test system is Myzus persicae. Briefly: Myzus persicae spray test (Chinese cabbage leaf discs). The class given is in vivo. The conditions noted are these: 100 g/ha; after 6 days. As for the experimental part:
as §2

In data set [5] the test system is Anopheles funestus strain FUMOZ-R. Briefly: whole plant or invertebrate. Type of data set: in vivo. To be noted: read-out: efficacy (mortality). As for the experimental part: (§4) • Solvent: acetone+2000 ppm rapeseed oil methyl ester (RME)
To produce a suitable active compound formulation, the active compound is dissolved in the solvent (2 mg/ml). The active compound formulation is pipetted onto a glazed tile and, after it has dried off, adult mosquitoes of the species Anopheles funestus strain FUMOZ-R (Hunt et al., Med Vet Entomol. 2005 September; 19 (3):271-5) are placed onto the treated tile. The exposure time is 30 minutes.

Data set [6] relates to Aedes aegypti strain MONHEIM. Briefly: whole plant or invertebrate. Type of data set: in vivo. The conditions noted are these: read-out: efficacy (mortality). As for the experimental part:
as §4
To produce a suitable active compound formulation, the active compound is dissolved in the solvent (2 mg/ml). The active compound formulation is pipetted onto a glazed tile and, after it has dried off, adult mosquitoes of the species Aedes aegypti strain MONHEIM are placed onto the treated tile. The exposure time is 30 minutes.

Data set [7] deals with Anopheles gambiae strain RSPH (homozygot kdr). The data set is described as follows: whole plant or invertebrate. Type of data set: in vivo. To be noted: read-out: efficacy (mortality). As for the experimental part: as §4
To produce a suitable active compound formulation, the active compound is dissolved in the solvent (2 mg/ml). The active compound formulation is pipetted onto a glazed tile and, after it has dried off, adult mosquitoes of the species Anopheles gambiae strain RSPH (homozygot kdr) are placed onto the treated tile. The exposure time is 30 minutes.

Data set [8] concerns Amaranthus retroflexus (AMARE). The data set is described as follows: Herbicidal activity, pre-emergence. The class given is in vivo. The conditions noted are these: 1280 g/ha, 3 weeks. The source says:
(§5) Seeds of monocotyledonous and dicotyledonous weed plants and crop plants were placed in wood-fibre pots in sandy loam and covered with soil. The compounds according to the invention, formulated as emulsion concentrates (EC), were then applied to the surface of the covering soil as an emulsion at a water application rate equating to 600 to 800 Uha with addition of 0.2% wetting agent.
(§6) After the treatment, the pots were placed in a greenhouse and kept under good growth conditions for the test plants. The damage to the test plants was scored visually after a test period of 3 weeks by comparison with untreated controls (herbicidal activity in percent (%): 100% activity=the plants have died, 0% activity=like control plants). Here, for example, compounds No. Ia-17, Ia-37, Ia-28 and Ia-56 at an application rate of 1280 g/ha each show 100% efficacy against Amaranthus retroflexus (AMARE) and with the exception of Ia-56, even against Viola tricolor (VIOTR). Furthermore, compounds no. Ia-17, Ia-37 and Ia-28 at the same application rate show an 80% or better efficacy against Matricaria inodorae (MATIN) and Ia-17 and Ia-37 even against Stellaria media (STEME).

A further data set relates to Viola tricolor (VIOTR). The data set is described as follows: Herbicidal activity, pre-emergence. The class given is in vivo. The conditions noted are these: 1280 g/ha, 3 weeks.
Source text: as §5, §6

Data set [9] relates to Tetranychus urticae. Briefly: Tetranychus urticae spray test, OP-resistant (bean plants). The class given is in vivo. The conditions noted are these: 4 ppm; after 7 days. As for the experimental part:
To produce further test concentrations, the latter is diluted with emulsifier-containing water. When addition of ammonium salts and/or penetrants is required, these are each added at a concentration of 1000 ppm to the preparation solution.
Bean plants (Phaseolus vulgaris), which are heavily infested by all stages of the greenhouse red spider mite (Tetranychus urticae), are treated by being sprayed with the active compound preparation at the desired concentration.

Setting [10] is: application rate 5 μg/cm^2 (=500 g/ha), dead or moribund ticks.
The mark [11] stands for this setting: reversed-phase C18 HPLC column, logP, HPLC, C18, acetonitrile/water with formic acid (note a).
[12] abbreviates: reversed-phase C18 HPLC column, logP^a, HPLC-MS method a).

Like-named read-outs stand apart in the source and are kept apart here.

Consider `CCC(=O)NCc1cc(-c2cnn(-c3c(C)cc(C(F)(C(F)(F)F)C(F)(F)F)cc3C)c2)ccc1F` [Ia-01], for which the efficacy in the data set on Phaedon cochleariae, in the data set with Spodoptera frugiperda, in the data set with Tetranychus urticae [1], in the data set on Ctenocephalides felis [2], in the data set on Rhipicephalus sanguineus (setting [10]) and in the data set with Myzus persicae was 100% in each case. The “efficacy (laying of fertile eggs)” value (in the data set with Boophilus microplus; in [4]) was 100% in each case. Besides, the “efficacy (rate of extermination)” value in the data set on Musca domestica, with Amblyomma hebraeum and in the data set with Ctenocephalides felis [3] was 100% throughout.
As a reminder, the mortality is the percentage killed. As a reminder, the chromatographic logP is a lipophilicity value derived from retention on a column. As for `CC(=O)NCc1cc(-c2cnn(-c3c(Cl)cc(C(F)(C(F)(F)F)C(F)(F)F)cc3Cl)c2)ccc1Cl` [Ia-05, N-(2-chloro-5-{1-[2,6-dichloro-4-(1,1,1,2,3,3,3-heptafluoropropan-2-yl)phenyl]-1H-pyrazol-4-yl}benzyl)acetamide], the pest or weed control at 100 g/ha with Phaedon cochleariae and in the data set with Spodoptera frugiperda was 100% throughout. Further, the “efficacy (laying of fertile eggs)” value in the data set on Boophilus microplus was found to be 100%. The mortality at 20 mg/m2 in [5], in [6] and in data set [7] was 90 to 100% each time. In addition, the mortality at 100 mg/m2 in data set [5], in data set [6] and in data set [7] was 90 to 100% throughout. Further, the chromatographic logP stood at 4.13 under setting [11] and 4.13 under setting [12]. In addition, the efficacy in the data set on Ctenocephalides felis [2] and with Rhipicephalus sanguineus (setting [10]) was 100% in each case. Also, the “efficacy (rate of extermination)” value in the data set with Musca domestica and in the data set on Ctenocephalides felis [3] was 100% throughout.
In the case of `CCC(=O)NCc1cccc(-c2cnn(-c3c(C)cc(C(F)(C(F)(F)F)C(F)(F)F)cc3C)c2)c1` [Ia-28], the efficacy in the data set with Phaedon cochleariae is listed as 100%; in the data set with Spodoptera frugiperda, 100%; in the data set with Tetranychus urticae [1] it was 100%; in the data set with Rhipicephalus sanguineus (setting [10]) it was 80%. The results for the “efficacy (laying of fertile eggs)” value (with Boophilus microplus; in data set [4]) were 100% and 80%, respectively. For the same compound, the herbicidal efficacy (in data set [8]; with Viola tricolor (VIOTR)) was 100% throughout. Further, the “efficacy (rate of extermination)” value in the data set on Musca domestica and in the data set on Ctenocephalides felis [3] was 100% in each case.
Take `CC(=O)NCc1cccc(-c2cnn(-c3c(C)cc(C(F)(C(F)(F)F)C(F)(F)F)cc3C)c2)c1` [Ia-37]: the efficacy in the data set with Phaedon cochleariae worked out at 100%; with Spodoptera frugiperda it was 83%; with Tetranychus urticae [1] it was 100%; with Rhipicephalus sanguineus (setting [10]) it was 80%. Also, the “efficacy (laying of fertile eggs)” value with Boophilus microplus amounted to 100%. The herbicidal efficacy (in data set [8]; in the data set on Viola tricolor (VIOTR)) was 100% in each case. The “efficacy (rate of extermination)” value in the data set with Musca domestica and with Ctenocephalides felis [3] was 100% in each case.
On to `CC(=O)NCc1cc(-c2cnn(-c3c(Cl)cc(C(F)(C(F)(F)F)C(F)(F)F)cc3OC(F)F)c2)ccc1Cl` [Ia-53], for which the efficacy in the data set on Phaedon cochleariae is 100%; in the data set with Spodoptera frugiperda, 100%; in the data set on Ctenocephalides felis [2] it was 90%; in the data set on Rhipicephalus sanguineus (setting [10]) it was 100%; with Tetranychus urticae [9], 99%. Moreover, the “efficacy (laying of fertile eggs)” value (in the data set with Boophilus microplus; in data set [4]) was 100% in each case. Further, the “efficacy (rate of extermination)” value in the data set on Musca domestica and with Ctenocephalides felis [3] was 100% each time.
For the compound `O=C(NCc1cc(-c2cnn(-c3c(Cl)cc(C(F)(C(F)(F)F)C(F)(F)F)cc3OC(F)(F)F)c2)ccc1Cl)C1CC1` [Ia-56], the efficacy with Phaedon cochleariae, with Spodoptera frugiperda, in the data set on Ctenocephalides felis [2] and in the data set on Rhipicephalus sanguineus (application rate 1 μg/cm^2 (=100 g/ha)) was 100% throughout. The “efficacy (laying of fertile eggs)” value in the data set on Boophilus microplus was determined as 100%. In data set [8], this compound came in with a herbicidal efficacy of 100%. The “efficacy (rate of extermination)” value in the data set with Musca domestica and in the data set on Ctenocephalides felis [3] was 100% in each case.
In the case of `CC(=O)N(Cc1cc(-c2cnn(-c3c(Cl)cc(C(F)(C(F)(F)F)C(F)(F)F)cc3Cl)c2)ccc1Cl)C(C)=O` [Ia-108, N-Acetyl-N-(2-chloro-5-{1-[2,6-dichloro-4-(1,1,1,2,3,3,3-heptafluoropropan-2-yl)phenyl]-1H-pyrazol-4-yl}benzyl)acetamide], the pest or weed control at 100 g/ha in the data set on Phaedon cochleariae and in the data set with Spodoptera frugiperda was 100% each time. Moreover, the “efficacy (laying of fertile eggs)” value with Boophilus microplus is listed as 100%. The chromatographic logP is, setting by setting: under setting [11], 5.14; under setting [12], 5.14. The efficacy was determined as 90% with Tetranychus urticae [1], 100% in the data set with Ctenocephalides felis [2] and 80% in the data set with Rhipicephalus sanguineus (setting [10]). Also, the mortality at 20 mg/m2 in data set [6] lay within 90 to 100%. The mortality at 100 mg/m2 in data set [6] and in data set [7] was 90 to 100% throughout. In addition, the “efficacy (rate of extermination)” value in the data set on Musca domestica and in the data set with Ctenocephalides felis [3] was 100% in each case.
`CC(=S)NCc1cc(-c2cnn(-c3c(Cl)cc(C(F)(C(F)(F)F)C(F)(F)F)cc3Cl)c2)ccc1Cl` [Ia-162, N-(2-chloro-5-{1-[2,6-dichloro-4-(1,1,1,2,3,3,3-heptafluoropropan-2-yl)phenyl]-1H-pyrazol-4-yl}benzyl)ethanethioamide]: the pest or weed control at 100 g/ha in the data set on Phaedon cochleariae and with Spodoptera frugiperda was 100% in each case. The “efficacy (laying of fertile eggs)” value with Boophilus microplus came to 100%; in [4], 80%. The mortality at 20 mg/m2 in [5], in data set [6] and in data set [7] was 90 to 100% in each case. Moreover, the chromatographic logP is, setting by setting: under setting [11], 4.98; (reversed-phase C18 HPLC column, logP^a, HPLC-MS method a), reversed-phase column (C18)) 4.98. Besides, the efficacy with Tetranychus urticae [1], in the data set on Ctenocephalides felis [2] and in the data set with Rhipicephalus sanguineus (setting [10]) was 100% each time. For the same compound, the “efficacy (rate of extermination)” value with Musca domestica and in the data set on Ctenocephalides felis [3] was 100% each time.

These data come from patent US10357036B2, “Compounds for controlling arthropods” (priority 2015, dated 2019).
